ChEMBL document CHEMBL3046267, “Induction of Phytoalexin Formation in Suspension-cultured Rice Cells byN-Acetyl-chitooligosaccharides” (1993)
The source made the active and inactive calls. The calls are words filed in the database; no cut-off is given here.

Tests used:
Format in all cases: functional
Pyricularia oryzae = experiment: Antifungal activity against Magnaporthe oryzae assessed as inhibition of germ tube growth at 1 to 5 ug/ml relative to control
Oryza sativa [1] = experiment: Induction of phytoalexin formation in suspension-cultured Oryza sativa (rice) cells assessed as accumulation of intracellular momilactone B at 10 ug/ml after 48 hr by GC/GC-MS analysis
Oryza sativa [2] = experiment: Induction of phytoalexin formation in suspension-cultured Oryza sativa (rice) cells assessed as accumulation of momilactone A in culture medium at 0.7 x 10^-9 to 0.7 x 10^-6 M after 24 hr by GC/GC-MS analysis
Oryza sativa [3] = experiment: Induction of phytoalexin formation in suspension-cultured Oryza sativa (rice) cells assessed as accumulation of momilactone A in culture medium at 0.7 x 10^-9 to 0.7 x 10^-6 M after 48 hr by GC/GC-MS analysis
Oryza sativa [4] = experiment: Induction of phytoalexin formation in suspension-cultured Oryza sativa (rice) cells assessed as accumulation of momilactone A in culture medium at 0.7 x 10^-9 to 0.7 x 10^-6 M after 72 hr by GC/GC-MS analysis
Oryza sativa [5] = experiment: Induction of phytoalexin formation in suspension-cultured Oryza sativa (rice) cells assessed as accumulation of intracellular momilactone A at 0.7 x 10^-9 to 0.7 x 10^-6 M after 24 hr by GC/GC-MS analysis
Oryza sativa [6] = experiment: Induction of phytoalexin formation in suspension-cultured Oryza sativa (rice) cells assessed as accumulation of intracellular momilactone A at 0.7 x 10^-9 to 0.7 x 10^-6 M after 48 hr by GC/GC-MS analysis
Oryza sativa [7] = experiment: Induction of phytoalexin formation in suspension-cultured Oryza sativa (rice) cells assessed as accumulation of intracellular momilactone A at 0.7 x 10^-9 to 0.7 x 10^-6 M after 72 hr by GC/GC-MS analysis

| SMILES | growth inhibition (GI) (Pyricularia oryzae) [%] | Activity (Oryza sativa [1]) | Activity (Oryza sativa [2]) [µg/g] | Activity (Oryza sativa [3]) [µg/g] | Activity (Oryza sativa [4]) [µg/g] | Activity (Oryza sativa [5]) [µg/g] | Activity (Oryza sativa [6]) [µg/g] | Activity (Oryza sativa [7]) [µg/g] |
| --- | --- | --- | --- | --- | --- | --- | --- | --- |
| C=C[C@]1(C)CC[C@@H]2C(=C[C@H]3OC(=O)[C@@]4(C)C(=O)CC[C@@]2(C)[C@@H]34)C1 [MOMILACTONE A] | 50 |  |  |  |  |  |  |  |
| C=C[C@]1(C)CC[C@@H]2C(=C[C@H]3OC(=O)[C@]4(C)[C@H]3[C@]23CC[C@@]4(O)OC3)C1 [MOMILACTONE B] | 50 |  |  |  |  |  |  |  |
| CC(=O)N[C@H]1[C@H](O[C@@H]([C@H](O)[C@H](C=O)NC(C)=O)[C@H](O)CO)O[C@H](CO)[C@@H](O[C@@H]2O[C@H](CO)[C@@H](O[C@@H]3O[C@H](CO)[C@@H](O[C@@H]4O[C@H](CO)[C@@H](O[C@@H]5O[C@H](CO)[C@@H](O[C@@H]6O[C@H](CO)[C@@H](O)[C@H](O)[C@H]6NC(C)=O)[C@H](O)[C@H]5NC(C)=O)[C@H](O)[C@H]4NC(C)=O)[C@H](O)[C@H]3NC(C)=O)[C@H](O)[C@H]2NC(C)=O)[C@@H]1O [N-ACETYLCHITOHEPTAOSE] |  | Active | 24 | 161 | 149 | 16 | 41 | 56 |
